Reference: patent publication US20200323888A1, “INHIBITORS” (VESTLANDETS INNOVASJONSSELSKAP AS, priority 2017, published 2020)

How the values were obtained:
NatA = target: T1, NatA (Homo sapiens, UniProt P41227); assay: Nt-acetylation inhibitor assay, immunoprecipitated NatA complex, HPLC quantification; type: biochemical
T1 construct: endogenous in cells
T1 sequence (P41227 1-235): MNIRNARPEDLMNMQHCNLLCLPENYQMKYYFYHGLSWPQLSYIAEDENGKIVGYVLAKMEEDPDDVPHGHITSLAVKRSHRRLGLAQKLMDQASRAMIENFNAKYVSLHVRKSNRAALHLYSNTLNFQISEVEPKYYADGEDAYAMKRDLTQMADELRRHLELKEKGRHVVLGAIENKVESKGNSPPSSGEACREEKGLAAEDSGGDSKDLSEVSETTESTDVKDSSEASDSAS
T1 sequence (Q9BXJ9 1-866 partner): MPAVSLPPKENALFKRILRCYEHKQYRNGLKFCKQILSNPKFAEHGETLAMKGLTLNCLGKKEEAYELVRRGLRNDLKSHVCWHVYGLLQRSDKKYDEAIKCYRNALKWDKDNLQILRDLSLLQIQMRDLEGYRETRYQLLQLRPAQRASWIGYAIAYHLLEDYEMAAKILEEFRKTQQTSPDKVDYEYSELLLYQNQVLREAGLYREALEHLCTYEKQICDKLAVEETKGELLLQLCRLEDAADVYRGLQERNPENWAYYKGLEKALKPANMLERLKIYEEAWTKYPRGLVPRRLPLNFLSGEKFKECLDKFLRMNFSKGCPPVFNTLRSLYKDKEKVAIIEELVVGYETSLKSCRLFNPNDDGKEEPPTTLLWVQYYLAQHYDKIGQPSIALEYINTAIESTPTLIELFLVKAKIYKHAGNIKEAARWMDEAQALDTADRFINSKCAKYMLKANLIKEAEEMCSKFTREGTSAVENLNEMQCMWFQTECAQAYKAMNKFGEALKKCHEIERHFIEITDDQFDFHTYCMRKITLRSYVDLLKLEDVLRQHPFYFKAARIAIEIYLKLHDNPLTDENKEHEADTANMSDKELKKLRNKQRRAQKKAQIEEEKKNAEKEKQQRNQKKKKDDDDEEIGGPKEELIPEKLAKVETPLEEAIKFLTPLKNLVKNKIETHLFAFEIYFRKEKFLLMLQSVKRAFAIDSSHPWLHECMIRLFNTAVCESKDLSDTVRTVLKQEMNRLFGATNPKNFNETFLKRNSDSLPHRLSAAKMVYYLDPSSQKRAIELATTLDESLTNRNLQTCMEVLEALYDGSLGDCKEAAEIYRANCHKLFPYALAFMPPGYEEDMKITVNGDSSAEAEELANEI
Description: The IC50 values for these compounds were tested as described in Foyn H, et al. (2013) “Design, Synthesis, and Kinetic Characterization of Protein N-Terminal Acetyltransferase Inhibitors”. ACS Chem Biol 8:1121-1127; and Foyn H, et al. (2017) “DTNB-Based quantification of in vitro enzymatic N-terminal acetyltransferase activity”, Methods Mol. Biol. 1574:9-15. Briefly, a colorimetric acetylation assay, 5,5′-dithiobis-(2-nitrobenzoic acid) (DTNB) assay was used to measure the catalytic activity of NATs after incubation with NAT inhibitors. In the DTNB assay, thiols present in the enzymatic product, CoA, cleaves DTNB and produces 2-nitro-5-thiobenzoate (NTB-), which absorbs light with a wavelength of 412 nm. NTB- forms in a 1:1 molar ratio to the thiol groups present in the sample. Therefore, NTB- was quantified by measuring the absorbance at 412 nm and indirectly measures peptide Nt-acetylation. Recombinant purified NAT enzyme was mixed with different substrate peptides (300 uM, custom-made) and Ac-CoA (300 uM) in acetylation buffer (50 mM Tris/HEPES pH 8.5-7.4, 100 mM NaCl, 10% glycerol and 0.2 mM EDTA) and with inhibitor concentration (0-500 uM). After 30 min-60 min incubation at 37° C., the enzyme activity was quenched with quenching buffer (3.2 M guanidinium-HCl, 100 mM sodium phosphate dibasic pH 6.8). Triplicates were run for all positive samples, while negative controls were duplicated. As a negative control, reactions without enzyme were incubated at 37° C. before the reaction was quenched and added enzyme. In order to measure CoA production, 2 mM DTNB (dissolved in 100 mM sodium phosphate dibasic pH 6.8 and 10 mM EDTA) was added to the quenched reaction and the absorbance at 412 nm was measured with a spectrophotometer (Epoc). Background absorbance (determined in negative controls) was subtracted from the absorbance determined in each individual reaction. Thiophenolate production was quantified assuming ε=13.7×103 M−1 cm−1. […] A similar Nt-acetylation reaction was performed as previously described and the enzymatic activity was quenched with a final concentration of 1% TFA and analyzed by HPLC (Evjenth R, Van Damme P, Gevaert K, Arnesen T (2013) HPLC-based Quantification of in vitro N-terminal Acetylation. Methods Mol Biol 981:95-102.).
In order to ensure selectivity towards NatA, the CoA-Ac-SSNIeP (SEQ ID NO: 4) was tested against other NATs. Using the Cheng-Prusoff equation for competitive inhibitors, the dissociation constant, Ki, was calculated from IC50 values and [S]/Km ratios for all the NATs.

Naa10 = target: T2, Naa10 (Homo sapiens, UniProt P41227); assay: Nt-acetylation inhibitor assay (DTNB), Naa10; type: biochemical; settings: Naa10; calculated from IC50 with Cheng-Prusoff equation
T2 sequence (P41227 1-235): T1 sequence (P41227 1-235)
Description: (§1) The IC50 values for these compounds were tested as described in Foyn H, et al. (2013) “Design, Synthesis, and Kinetic Characterization of Protein N-Terminal Acetyltransferase Inhibitors”. ACS Chem Biol 8:1121-1127; and Foyn H, et al. (2017) “DTNB-Based quantification of in vitro enzymatic N-terminal acetyltransferase activity”, Methods Mol. Biol. 1574:9-15. Briefly, a colorimetric acetylation assay, 5,5′-dithiobis-(2-nitrobenzoic acid) (DTNB) assay was used to measure the catalytic activity of NATs after incubation with NAT inhibitors. […] Therefore, NTB- was quantified by measuring the absorbance at 412 nm and indirectly measures peptide Nt-acetylation. […] In order to measure CoA production, 2 mM DTNB (dissolved in 100 mM sodium phosphate dibasic pH 6.8 and 10 mM EDTA) was added to the quenched reaction and the absorbance at 412 nm was measured with a spectrophotometer (Epoc). Background absorbance (determined in negative controls) was subtracted from the absorbance determined in each individual reaction. Thiophenolate production was quantified assuming ε=13.7×103 M−1 cm−1. […] A similar Nt-acetylation reaction was performed as previously described and the enzymatic activity was quenched with a final concentration of 1% TFA and analyzed by HPLC (Evjenth R, Van Damme P, Gevaert K, Arnesen T (2013) HPLC-based Quantification of in vitro N-terminal Acetylation. Methods Mol Biol 981:95-102.). […]

Naa30 = target: T3, Naa30 (Homo sapiens, UniProt Q147X3); assay: Nt-acetylation inhibitor assay (DTNB), Naa30; type: biochemical; settings: calculated from IC50 with Cheng-Prusoff equation
T3 sequence (Q147X3 1-362): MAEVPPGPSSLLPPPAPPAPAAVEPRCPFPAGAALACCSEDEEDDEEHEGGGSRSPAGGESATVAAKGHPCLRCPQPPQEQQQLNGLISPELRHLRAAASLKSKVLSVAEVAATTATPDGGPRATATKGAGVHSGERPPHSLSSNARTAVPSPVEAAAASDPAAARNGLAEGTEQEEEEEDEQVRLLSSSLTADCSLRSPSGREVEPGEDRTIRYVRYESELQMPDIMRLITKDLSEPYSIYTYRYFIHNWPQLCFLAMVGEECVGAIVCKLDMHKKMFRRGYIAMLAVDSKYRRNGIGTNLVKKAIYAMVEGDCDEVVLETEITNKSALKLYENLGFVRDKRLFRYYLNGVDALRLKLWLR
Description: as §1

Naa40 = Naa40 (Homo sapiens, UniProt Q86UY6); assay: Nt-acetylation inhibitor assay (DTNB), Naa40; type: biochemical; settings: calculated from IC50 with Cheng-Prusoff equation
Description: as §1

Naa50 = target: T4, Naa50 (Homo sapiens, UniProt Q9GZZ1); assay: Nt-acetylation inhibitor assay (DTNB), Naa50; type: biochemical; settings: calculated from IC50 with Cheng-Prusoff equation
T4 sequence (Q9GZZ1 1-169): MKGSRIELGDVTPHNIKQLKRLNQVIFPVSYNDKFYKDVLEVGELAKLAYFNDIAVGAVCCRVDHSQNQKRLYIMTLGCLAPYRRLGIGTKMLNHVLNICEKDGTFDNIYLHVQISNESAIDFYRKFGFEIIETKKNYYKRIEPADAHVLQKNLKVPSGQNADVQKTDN
Description: as §1

Naa60 = Naa60 (Homo sapiens, UniProt Q9H7X0); assay: Nt-acetylation inhibitor assay (DTNB), Naa60; type: biochemical; settings: calculated from IC50 with Cheng-Prusoff equation
Naa60, sequence (Q9H7X0 whole entry, looked up): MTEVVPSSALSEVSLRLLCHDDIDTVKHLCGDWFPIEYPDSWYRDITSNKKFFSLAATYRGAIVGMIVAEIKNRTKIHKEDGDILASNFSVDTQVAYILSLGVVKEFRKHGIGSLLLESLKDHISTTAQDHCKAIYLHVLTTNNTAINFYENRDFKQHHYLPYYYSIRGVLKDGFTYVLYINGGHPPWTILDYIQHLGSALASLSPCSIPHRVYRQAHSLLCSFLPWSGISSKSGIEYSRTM
Description: as §1

zebrafish embryos = assay: Phenotype after injection into zebrafish embryos; type: in vivo; settings: injected into zebrafish embryos; compared with reference inhibitor
Excerpt: A norleucine (Nle) residue was therefore tried in place of methionine in order to try to circumvent the synthesis problem.

NatB = NatB (Homo sapiens, UniProt P61599); assay: Nt-acetylation inhibitor assay, immunoprecipitated NatB complex, HPLC quantification; type: biochemical; parameters: endogenous in cells; settings: calculated from IC50 with Cheng-Prusoff equation
NatB, sequence (P61599 whole entry): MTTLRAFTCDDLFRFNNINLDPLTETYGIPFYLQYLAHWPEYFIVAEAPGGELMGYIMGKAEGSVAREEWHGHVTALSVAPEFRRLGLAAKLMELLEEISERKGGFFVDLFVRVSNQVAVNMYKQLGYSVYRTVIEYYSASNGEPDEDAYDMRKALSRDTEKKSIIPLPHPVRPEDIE
NatB, sequence (Q14CX7 whole entry partner): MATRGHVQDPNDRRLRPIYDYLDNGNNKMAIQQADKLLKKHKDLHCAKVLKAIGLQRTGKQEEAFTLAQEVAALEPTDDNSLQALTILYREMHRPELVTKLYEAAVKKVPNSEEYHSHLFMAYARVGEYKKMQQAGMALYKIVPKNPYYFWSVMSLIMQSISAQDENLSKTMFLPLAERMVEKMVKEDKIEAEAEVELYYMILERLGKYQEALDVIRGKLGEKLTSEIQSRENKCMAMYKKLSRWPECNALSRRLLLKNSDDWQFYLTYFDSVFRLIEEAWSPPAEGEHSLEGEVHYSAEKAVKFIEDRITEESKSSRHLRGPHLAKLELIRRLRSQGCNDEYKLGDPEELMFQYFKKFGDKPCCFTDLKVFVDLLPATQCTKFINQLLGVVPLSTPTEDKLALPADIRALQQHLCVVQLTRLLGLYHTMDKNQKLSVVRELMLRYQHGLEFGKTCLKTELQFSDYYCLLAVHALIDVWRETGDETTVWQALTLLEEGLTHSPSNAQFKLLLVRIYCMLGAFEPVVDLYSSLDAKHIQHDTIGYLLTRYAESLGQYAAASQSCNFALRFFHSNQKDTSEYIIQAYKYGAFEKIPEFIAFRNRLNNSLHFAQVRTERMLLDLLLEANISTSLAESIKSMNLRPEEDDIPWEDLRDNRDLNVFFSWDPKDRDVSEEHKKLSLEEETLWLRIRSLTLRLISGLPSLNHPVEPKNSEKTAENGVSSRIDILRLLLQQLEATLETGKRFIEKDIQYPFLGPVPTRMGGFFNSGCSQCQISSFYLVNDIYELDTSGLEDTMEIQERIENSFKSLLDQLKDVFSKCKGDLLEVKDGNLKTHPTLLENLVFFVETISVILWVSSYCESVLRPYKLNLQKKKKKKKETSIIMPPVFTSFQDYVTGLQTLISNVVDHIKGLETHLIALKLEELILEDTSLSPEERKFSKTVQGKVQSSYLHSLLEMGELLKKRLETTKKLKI
Description: as §1

Compound: CCCC[C@H](NC(=O)[C@H](CO)NC(=O)[C@H](CO)NC(=O)CSCCNC(=O)CCNC(=O)C(O)C(C)(C)COP(=O)(O)OP(=O)(O)OCC1OC(n2cnc3c(N)ncnc32)C(O)C1OP(=O)(O)O)C(=O)N1CCC[C@H]1C(N)=O (stereo partly shown) [CoA-Ac-SS(Nle)P]
- Ki (NatA; NatA, calculated from IC50 with Cheng-Prusoff equation): 143 ± 30 nM
- IC50 (NatA; inhibitors tested against NatA, all compounds with C-terminal amide): 1460 ± 290 nM
- more potent towards NatA than all the other NATs tested (NatA; selectivity from Ki values of Table 2): at least 100 fold
- Ki (Naa10): 98.9 µM
- Ki (Naa30): 132 µM
- Ki (Naa40): 41.9 ± 6.4 µM
- Ki (Naa50): 17.7 ± 7.4 µM
- Ki (Naa60): 3.1 ± 0.8 µM
- phenotype in zebrafish (zebrafish embryos): same phenotype in zebrafish as SSMP
- Ki (NatB): 41.6 ± 51.2 µM
